Drawing on ChEMBL document CHEMBL1909046, “DrugMatrix in vitro pharmacology data”, this text covers IC50 and Ki for 16 compounds.

Data set [1] can be described thus: DRUGMATRIX: Glutamate, Kainate radioligand binding (ligand: [3H] Kainic acid). The conditions noted are these: Not Active = under 50% inhibition at 10 µM. The data set is classed as cell membranes, Rattus norvegicus, Wistar, Brain, Membrane.
The next data set deals with Cytochrome P450 2D6 (Homo sapiens, UniProt P10635). The conditions noted are these: bti-tn-5b1-4.
Data set [2] in a line: DRUGMATRIX: Glutamate, NMDA, Phencyclidine radioligand binding (ligand: [3H] TCP). The data set is classed as cell membranes, Rattus norvegicus, Wistar, Cerebral cortex, Membrane. The conditions noted are these: Not Active = under 50% inhibition at 10 µM.
Data set [3] deals with T1, Alpha-1B adrenergic receptor (Rattus norvegicus, UniProt P15823).
T1 sequence (P15823 whole entry): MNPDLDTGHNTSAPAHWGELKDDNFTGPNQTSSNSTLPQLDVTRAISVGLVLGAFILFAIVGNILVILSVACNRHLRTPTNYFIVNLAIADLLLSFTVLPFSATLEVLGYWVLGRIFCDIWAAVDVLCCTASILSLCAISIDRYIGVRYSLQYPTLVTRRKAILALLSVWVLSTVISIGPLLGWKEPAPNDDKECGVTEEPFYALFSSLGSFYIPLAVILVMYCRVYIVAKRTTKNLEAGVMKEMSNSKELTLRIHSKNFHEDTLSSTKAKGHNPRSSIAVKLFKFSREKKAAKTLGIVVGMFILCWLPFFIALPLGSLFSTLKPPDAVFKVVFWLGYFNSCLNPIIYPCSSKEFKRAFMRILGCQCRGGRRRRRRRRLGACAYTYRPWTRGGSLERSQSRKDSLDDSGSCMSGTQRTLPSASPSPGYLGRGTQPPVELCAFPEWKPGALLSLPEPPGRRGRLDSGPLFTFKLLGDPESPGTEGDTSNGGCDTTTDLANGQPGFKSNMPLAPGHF
In words: DRUGMATRIX: Alpha-1B adrenergic receptor radioligand binding (ligand: prazosin). The data set is classed as cell membranes, Wistar, Liver, Membrane. As to conditions: Not Active = under 50% inhibition at 10 µM.

The nature of data set [4]: DRUGMATRIX: Phosphodiesterase PDE4 enzyme inhibition (substrate: [3H]cAMP + cAMP). The conditions noted are these: u-937; Not Active = under 50% inhibition at 10 µM.
A short description of data set [5]: DRUGMATRIX: Phosphodiesterase PDE3 enzyme inhibition (substrate: [3H]cAMP + cAMP). The class given is tissue-based, Homo sapiens. The conditions noted are these: platelet; Not Active = under 50% inhibition at 10 µM.
The nature of data set [6]: DRUGMATRIX: Nicotinic Acetylcholine radioligand binding (ligand: [125I] Epibatidine). The data set is classed as cell membranes, Membrane. The conditions noted are these: imr-32; Not Active = under 50% inhibition at 10 µM.
A short description of data set [7]: DRUGMATRIX: Leukotriene, BLT (LTB4) radioligand binding (ligand: [3H]LTB4). The class given is cell membranes, Membrane. As to conditions: u-937, Not Active = under 50% inhibition at 10 µM.
Data set [8] can be described thus: DRUGMATRIX: Serotonin (5-Hydroxytryptamine) 5-HT3 radioligand binding (ligand: [3H] GR-65630). The class given is cell membranes, Membrane. As to conditions: hek293; Not Active = under 50% inhibition at 10 µM.

Cytochrome P450 2D6, sequence (P10635 whole entry): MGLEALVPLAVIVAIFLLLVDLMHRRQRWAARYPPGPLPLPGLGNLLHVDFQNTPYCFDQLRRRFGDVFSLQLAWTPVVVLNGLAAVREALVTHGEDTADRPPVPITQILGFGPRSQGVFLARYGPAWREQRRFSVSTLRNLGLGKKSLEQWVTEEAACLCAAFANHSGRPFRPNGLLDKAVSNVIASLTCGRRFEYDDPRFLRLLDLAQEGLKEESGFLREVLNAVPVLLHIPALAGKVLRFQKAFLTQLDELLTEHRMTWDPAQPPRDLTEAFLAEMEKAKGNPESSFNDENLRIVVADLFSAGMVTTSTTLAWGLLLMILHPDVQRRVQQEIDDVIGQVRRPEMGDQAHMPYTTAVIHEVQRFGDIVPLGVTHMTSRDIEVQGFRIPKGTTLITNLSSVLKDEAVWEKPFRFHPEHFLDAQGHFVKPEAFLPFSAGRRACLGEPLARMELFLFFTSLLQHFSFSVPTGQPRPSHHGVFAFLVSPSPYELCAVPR

As for `CCCCC(=O)N(Cc1ccc(-c2ccccc2-c2nnn[nH]2)cc1)[C@H](C(=O)O)C(C)C`, the IC50 result (in [1]; at Cytochrome P450 2D6; in data set [2]; in data set [3]; in [4]; in data set [5]) was “Not Active” throughout. In addition, the 50% inhibitory concentration (IC50) entry in data set [6], in data set [7] and in data set [8] was “Not Active” throughout. Also, the Ki result (in [1]; on Cytochrome P450 2D6; in [2]; in data set [4]; in [5]; in [6]) was “Not Active” each time. The Ki result in data set [7] and in data set [8] was “Not Active” throughout.

On to `O=C(O)COc1ccc(C(=O)c2cccs2)c(Cl)c1Cl`, for which the half-maximal inhibitory concentration (IC50) result (in data set [1]; against Cytochrome P450 2D6; in data set [2]; in data set [3]; in [4]; in [5]) was “Not Active” in each case. Also, the concentration for half-maximal inhibition (IC50) result in data set [6], in data set [7] and in data set [8] was “Not Active” each time. Besides, the Ki entry (in data set [1]; at Cytochrome P450 2D6; in data set [2]; in data set [4]; in [5]; in data set [6]) was “Not Active” throughout. For the same compound, the inhibition constant (Ki) result in data set [7] and in data set [8] was “Not Active” in each case.

For the compound `CN1[C@@H]2CC[C@H]1C[C@@H](OC(c1ccccc1)c1ccccc1)C2` [BENZTROPINE], at Cytochrome P450 2D6, the IC50 – broadly, the concentration that inhibits the measured activity by half – is “Not Active” and the Ki (commonly the equilibrium dissociation constant of an inhibitor or competing ligand from its target) is listed as “Not Active”.

With `C[C@@](Cc1ccc(O)c(O)c1)(NN)C(=O)O.O` [CARBIDOPA], the IC50 result (in data set [1]; at Cytochrome P450 2D6; in [2]; in data set [3]; in data set [4]; in [5]) was “Not Active” each time. Further, the IC50 result in data set [6], in data set [7] and in [8] was “Not Active” in each case. Also, the Ki result (in [1]; on Cytochrome P450 2D6; in data set [2]; in [4]; in [5]; in data set [6]) was “Not Active” in each case. For the same compound, the Ki entry in data set [7] and in data set [8] was “Not Active” throughout.

Take `CN1CCN(C2=Nc3cc(Cl)ccc3Nc3ccccc32)CC1` [CLOZAPINE]: at Cytochrome P450 2D6, the half-inhibitory concentration (IC50) result is “Not Active” and the Ki entry is given as “Not Active”.

In the case of `CC(C)NC[C@@H](O)COc1cccc2ccccc12` [DEXPROPRANOLOL], on Cytochrome P450 2D6, the IC50 result is “Not Active” and the Ki result was “Not Active”.

On to `CC(C)NC[C@H](O)COc1cccc2ccccc12` [LEVOPROPRANOLOL], for which, on Cytochrome P450 2D6, the concentration for half-maximal inhibition (IC50) entry is on record as “Not Active” and the Ki entry was “Not Active”.

Regarding `O=C(O)CCCCC1CCSS1` (stereo not drawn) [LIPOIC ACID, ALPHA], the IC50 result (in [1]; at Cytochrome P450 2D6; in data set [2]; in data set [3]; in [4]; in data set [5]) was “Not Active” each time. In addition, the IC50 result in data set [6], in data set [7] and in data set [8] was “Not Active” throughout. Besides, the Ki entry (in [1]; on Cytochrome P450 2D6; in [2]; in data set [4]; in data set [5]; in data set [6]) was “Not Active” in each case. Further, the Ki entry in [7] and in data set [8] was “Not Active” each time.

On to `C[C@]12C=CC(=O)C=C1CC[C@@H]1[C@@H]2C(=O)C[C@@]2(C)[C@H]1CC[C@]2(O)C(=O)CO` [PREDNISONE], for which the IC50 entry in data set [1], in data set [2], in data set [3], in data set [4], in data set [5] and in data set [6] was “Not Active” in each case. The IC50 entry in data set [7] and in data set [8] was “Not Active” throughout. For the same compound, the inhibition constant (Ki) entry in data set [1], in data set [2], in data set [4], in data set [5], in data set [6] and in data set [7] was “Not Active” throughout. Also, the Ki entry in data set [8] is on record as “Not Active”.

Take `OCCOCCN1CCN(C2=Nc3ccccc3Sc3ccccc32)CC1` [QUETIAPINE]: at Cytochrome P450 2D6, the half-maximal inhibitory concentration (IC50) result was “Not Active” and the Ki result was “Not Active”.

As to `COC(=O)[C@H]1[C@H]2C[C@@H]3c4[nH]c5cc(OC)ccc5c4CCN3C[C@H]2C[C@@H](OC(=O)c2cc(OC)c(OC)c(OC)c2)[C@@H]1OC` [RESERPINE], the half-inhibitory concentration (IC50) entry (in data set [1]; against Cytochrome P450 2D6; in [2]; in data set [3]; in [4]; in data set [5]) was “Not Active” each time. For the same compound, the IC50 result in data set [6], in data set [7] and in [8] was “Not Active” in each case. The Ki entry (in [1]; at Cytochrome P450 2D6; in [2]; in [4]; in [5]; in [6]) was “Not Active” in each case. For the same compound, the Ki entry in data set [7] and in [8] was “Not Active” each time.

As to `O=C(O)c1ccccc1O` [SALICYLIC ACID], the IC50 result (in data set [1]; on Cytochrome P450 2D6; in data set [2]; in data set [3]; in data set [4]; in [5]) was “Not Active” throughout. Also, the IC50 entry in [6], in data set [7] and in data set [8] was “Not Active” each time. For the same compound, the Ki entry (in data set [1]; at Cytochrome P450 2D6; in data set [2]; in data set [4]; in data set [5]; in [6]) was “Not Active” each time. In addition, the inhibition constant (Ki) entry in [7] and in data set [8] was “Not Active” throughout.

With `CC1CCC(NC(=O)N(CCCl)N=O)CC1` (stereo unspecified) [SEMUSTINE], the concentration for half-maximal inhibition (IC50) entry (in [1]; against Cytochrome P450 2D6; in data set [2]; in data set [3]; in data set [4]; in data set [5]) was “Not Active” each time. Besides, the IC50 result in [6], in data set [7] and in data set [8] was “Not Active” in each case. Also, the Ki result (in data set [1]; on Cytochrome P450 2D6; in [2]; in [4]; in data set [5]; in data set [6]) was “Not Active” in each case. The inhibition constant (Ki) entry in data set [7] and in data set [8] was “Not Active” each time.

For the compound `O=C1C[C@@H]2OCC=C3CN4CC[C@]56c7ccccc7N1[C@H]5[C@H]2[C@H]3C[C@H]46` [STRYCHNINE], the IC50 result (in data set [1]; against Cytochrome P450 2D6; in [2]; in data set [3]; in data set [4]; in [5]) was “Not Active” in each case. Also, the IC50 entry in [6], in data set [7] and in data set [8] was “Not Active” throughout. In addition, the Ki result (in data set [1]; on Cytochrome P450 2D6; in data set [2]; in data set [4]; in [5]; in data set [6]) was “Not Active” each time. The Ki entry in data set [7] and in data set [8] was “Not Active” throughout.

Take `CCCCCCCCNC(C)C(O)c1ccc(SC(C)C)cc1` (stereo unspecified) [SULOCTIDIL]: the IC50 entry (in [1]; at Cytochrome P450 2D6; in data set [2]; in [3]; in data set [4]; in data set [5]) was “Not Active” each time. Also, the IC50 is 1440 nM in data set [7] (read-out: IC50) and “Not Active” in data set [8]. The Ki entry is “Not Active” in data set [1]; “Not Active” on Cytochrome P450 2D6; “Not Active” in data set [2]; “Not Active” in data set [4]; “Not Active” in data set [5]; 366 nM in [7] (read-out: Ki). For the same compound, the inhibition constant (Ki) result in data set [8] is given as “Not Active”.

For `CN1CCN(CCCN2c3ccccc3Sc3ccc(C(F)(F)F)cc32)CC1` [TRIFLUOPERAZINE], the half-inhibitory concentration (IC50) entry in data set [1], in [2], in data set [3], in data set [4], in [5] and in data set [6] was “Not Active” each time. For the same compound, the IC50 result in [7] and in [8] was “Not Active” each time. Moreover, the Ki result in data set [1], in data set [2], in data set [4], in data set [5], in [6] and in [7] was “Not Active” throughout. Further, the Ki entry in [8] is given as “Not Active”.
